Measured values: patent US6649398B2, “Method for inducing bacterial growth using autoinducers” (University of Leicester, priority 1997, dated 2003)

Legend:
[1] = system: Staphylococcus aureus; experiment: Growth response in serum-SAPI medium (CFU/ml); type: cell-based; conditions: control 3.2 × 10^5
Experimental: (§1) Bacteria (approximately 50-500 cfu/ml) are inoculated into SAPI minimal medium (6.25 mM NH4NO3, 1.84 mM KH2PO4, 3.35 mM KCl, 1.01 mM MgSO4 and 2.77 mM glucose, pH 7.5) supplemented with 30% (v/v) adult bovine serum (Sigma), and either 1% (v/v) previously made E.coli autoinducer or 50 mM norepinephrine.
(§2) The cultures are grown statically (i.e. without aeration by shaking) for 24 hours at 37° C. in a 5% CO2 incubator.
(§3) It has been shown that certain of these bacteria respond to norepinephrine (NE) and synthesise their own autoinducers, all of which are heat-stable low molecular weight molecules (less than 1000 Da) similar in size to the E. coli autoinducer (Table 4, FIG. 5).

[2] = system: Enterococcus faecium; experiment: Growth response in serum-SAPI medium (CFU/ml); type: cell-based; conditions: control 2.1 × 10^5
Experimental: as §1, §2, §3

[3] = system: Proteus mirabilis; experiment: Growth response in serum-SAPI medium (CFU/ml); type: cell-based; conditions: control 1.1 × 10^3
Experimental: as §1, §2, §3

[4] = system: Hafnia alvei; experiment: Growth response in serum-SAPI medium (CFU/ml); type: cell-based; conditions: control 1.2 × 10^4
Experimental: as §1, §2, §3

[5] = system: Enterobacter agglomerans; experiment: Growth response in serum-SAPI medium (CFU/ml); type: cell-based; conditions: control 2.9 × 10^4
Experimental: as §1, §2, §3

[6] = system: Xanthomonas maltophilia; experiment: Growth response in serum-SAPI medium (CFU/ml); type: cell-based; conditions: control 1.7 × 10^5
Experimental: as §1, §2, §3

[7] = system: Morganella morganii; experiment: Growth response in serum-SAPI medium (CFU/ml); type: cell-based; conditions: control 3.7 × 10^4
Experimental: as §1, §2, §3

[8] = system: Streptococcus dysgalactiae; experiment: Growth response in serum-SAPI medium (CFU/ml); type: cell-based; conditions: control 2.0 × 10^7
Experimental: as §1, §2, §3

[9] = system: Enterobacter aerogenes; experiment: Growth response in serum-SAPI medium (CFU/ml); type: cell-based; conditions: control 3.2 × 10^8
Experimental: as §1, §2, §3

[10] = system: Klebsiella oxytoca; experiment: Growth response in serum-SAPI medium (CFU/ml); type: cell-based; conditions: control 4.2 × 10^4
Experimental: as §1, §2, §3

[11] = system: Streptococcus sanguis; experiment: Growth response in serum-SAPI medium (CFU/ml); type: cell-based; conditions: control 2.1 × 10^4
Experimental: as §1, §2, §3

[12] = system: Staphylococcus albus; experiment: Growth response in serum-SAPI medium (CFU/ml); type: cell-based; conditions: control 1.1 × 10^3
Experimental: as §1, §2, §3

[13] = system: Klebsiella pneumoniae; experiment: Growth response in serum-SAPI medium (CFU/ml); type: cell-based; conditions: control 3.1 × 10^4
Experimental: as §1, §2, §3

[14] = system: Salmonella enterica sv Enteriditis; experiment: Growth response in serum-SAPI medium (CFU/ml); type: cell-based; conditions: control 7.5 × 10^5
Experimental: as §1, §2, §3

[15] = system: Pseudomonas aeruginosa; experiment: Growth response in serum-SAPI medium (CFU/ml); type: cell-based; conditions: control 3.7 × 10^4
Experimental: as §1, §2, §3

[16] = system: Enterobacter sakazaki; experiment: Growth response in serum-SAPI medium (CFU/ml); type: cell-based; conditions: control 3.0 × 10^6
Experimental: as §1, §2, §3

[17] = system: Listeria monocytogenes; experiment: Growth response in serum-SAPI medium (CFU/ml); type: cell-based; conditions: control 2.5 × 10^5
Experimental: as §1, §2, §3

[18] = system: Serratia marcescens; experiment: Growth response in serum-SAPI medium (CFU/ml); type: cell-based; conditions: control 8.5 × 10^7
Experimental: as §1, §2, §3

[19] = system: Acinetobacter lwoffii; experiment: Growth response in serum-SAPI medium (CFU/ml); type: cell-based; conditions: control 1.0 × 10^4
Experimental: as §1, §2, §3

[20] = system: Enterococcus faecalis; experiment: Growth response in serum-SAPI medium (CFU/ml); type: cell-based; conditions: control 5.0 × 10^5
Experimental: as §1, §2, §3

[21] = system: Citrobacter freundii; experiment: Growth response in serum-SAPI medium (CFU/ml); type: cell-based; conditions: control 1.9 × 10^6
Experimental: as §1, §2, §3

[22] = system: Escherichia coli; experiment: Growth response in serum-SAPI medium (CFU/ml); type: cell-based; conditions: control 7.5 × 10^4
Experimental: as §1, §2, §3

[23] = system: Enterobacter cloacae; experiment: Growth response in serum-SAPI medium (CFU/ml); type: cell-based; conditions: control 7.2 × 10^6
Experimental: as §1, §2, §3

[24] = system: Yersinia entercolitica; experiment: Growth response in serum-SAPI medium (CFU/ml); type: cell-based; conditions: control 4.2 × 10^4
Experimental: as §1, §2, §3

[25] = system: bacteria; experiment: Growth stimulation assay (serum assay); type: cell-based; conditions: for Stimulation of growth and autoinducer production in serum assay: equivalent mM concentrations
[26] = cited from earlier work

**Q.** Which “Response (growth), CFU/ml” value [1] does the source give for NC[C@H](O)c1ccc(O)c(O)c1 [NE, norepinephrine] here?
**A.** The value was 5.7 × 10^5 CFU/ml.

**Q.** What about the “Response (growth), CFU/ml” value [2] of the same molecule?
**A.** Its value is 5.6 × 10^6 CFU/ml.

**Q.** What about the “Response (growth), CFU/ml” value [3] of the same molecule?
**A.** Its value is 1.0 × 10^7 CFU/ml.

**Q.** What about the “Response (growth), CFU/ml” value [4] of the same molecule?
**A.** Its value is 3.7 × 10^8 CFU/ml.

**Q.** And the “Response (growth), CFU/ml” value [5]?
**A.** The value was 6.1 × 10^6 CFU/ml.

**Q.** What about the “Response (growth), CFU/ml” value [6] of the same molecule?
**A.** The value was 2.1 × 10^6 CFU/ml.

**Q.** What about the “Response (growth), CFU/ml” value [7] of the same molecule?
**A.** The value was 1.6 × 10^7 CFU/ml.

**Q.** What about the “Response (growth), CFU/ml” value [8] of the same molecule?
**A.** The value was 2.4 × 10^6 CFU/ml.

**Q.** What about the “Response (growth), CFU/ml” value [9] of the same molecule?
**A.** The value was 5.5 × 10^8 CFU/ml.

**Q.** And the “Response (growth), CFU/ml” value [10]?
**A.** Its value is 1.6 × 10^8 CFU/ml.

**Q.** And the “Response (growth), CFU/ml” value [11]?
**A.** The value was 1.1 × 10^4 CFU/ml.

**Q.** What about the “Response (growth), CFU/ml” value [12] of the same molecule?
**A.** Its value is 1.5 × 10^7 CFU/ml.

**Q.** What about the “Response (growth), CFU/ml” value [13] of the same molecule?
**A.** Its value is 6.7 × 10^7 CFU/ml.

**Q.** What about the “Response (growth), CFU/ml” value [14] of the same molecule?
**A.** The value was 1.0 × 10^8 CFU/ml.

**Q.** And the “Response (growth), CFU/ml” value [15]?
**A.** The value was 2.1 × 10^7 CFU/ml.

**Q.** What about the “Response (growth), CFU/ml” value [16] of the same molecule?
**A.** The value was 4.1 × 10^7 CFU/ml.

**Q.** And the “Response (growth), CFU/ml” value [17]?
**A.** The value was 3.5 × 10^6 CFU/ml.

**Q.** What about the “Response (growth), CFU/ml” value [18] of the same molecule?
**A.** The value was 3.4 × 10^8 CFU/ml.

**Q.** What about the “Response (growth), CFU/ml” value [19] of the same molecule?
**A.** The value was 2.9 × 10^7 CFU/ml.

**Q.** What about the “Response (growth), CFU/ml” value [20] of the same molecule?
**A.** Its value is 5.5 × 10^6 CFU/ml.

**Q.** What about the “Response (growth), CFU/ml” value [21] of the same molecule?
**A.** The value was 3.5 × 10^7 CFU/ml.

**Q.** And the “Response (growth), CFU/ml” value [22]?
**A.** The value was 5.9 × 10^8 CFU/ml.

**Q.** What about the “Response (growth), CFU/ml” value [23] of the same molecule?
**A.** The value was 1.1 × 10^8 CFU/ml.

**Q.** What about the “Response (growth), CFU/ml” value [24] of the same molecule?
**A.** The value was 1.7 × 10^8 CFU/ml.

**Q.** Which “Inhibition in the growth stimulation assays” value ([25]; concentrations up to 20 mM) does the source give for CCN(CC)CC.O=C(O)O [TEAB, triethylammonium bicarbonate] here?
**A.** Its value is “not inhibitory”.

**Q.** Which “Stimulation of growth and autoinducer production in serum assay” value (shortened to “Stimulation … in serum assay”) [25] does the source give for CC(=O)O [acetate] here?
**A.** The value was “not”.

**Q.** With Cl.N [ammonium chloride] as the molecule, how does the “Stimulation … in serum assay” value [25] read?
**A.** Its value is “not”.

**Q.** For N.N.O=S(=O)(O)O [ammonium sulfate], which “Stimulation … in serum assay” value [25] is on record?
**A.** Its value is “can stimulate growth and autoinducer production”.

**Q.** With O=C(O)O [bicarbonate] as the molecule, how does the “Stimulation … in serum assay” value [25] read?
**A.** The value was “not”.

**Q.** With O=C(N[C@H]1COC(=O)[C@@H](NC(=O)c2cccc(O)c2O)COC(=O)[C@@H](NC(=O)c2cccc(O)c2O)COC1=O)c1cccc(O)c1O [enterochelin] as the molecule, how does the “Solubility in organic solvents” value [26] read?
**A.** The value was “soluble in organic solvents”.

**Q.** For O=CO [formate], which “Stimulation … in serum assay” value [25] is on record?
**A.** The value was “not”.
